Measurements: patent publication US11376203B2, “Hair treatment composition” (Conopco, Inc., priority 2017, dated 2022)

How the values were obtained:
[1] = Hair switch shape and frizz control (volume) after straightening and exposure to high humidity; settings: After 1 hour at high humidity (30 C./80% RH); switches soaked 30 minutes in 1% aqueous solution, dried, straightened with 5 passes of irons; volume vs water control
Method: (§1) Dark brown European wavy hair switches of length 25 cm and weight 2 gms, were treated as follows:
Control: After initial washing, soaked for 30 minutes in water
Comparative Example A: After initial washing, soaked for 30 minutes in aqueous solution of 1% glycine
Example 1: soaked for 30 minutes in aqueous solution of 1% N-formyl glycine
(§2) At the end of the soaking period, the switches were left to dry at 20° C. and 50% RH. When dried, the switches were straightened with 5 passes of FHI irons (FHI Brands, 29003 Avenue Sherman Valencia, Calif. 91355 USA). The switches were then placed in a humidity chamber ˜30 C/80% RH for 1 hour and images were captured and analyzed.

[2] = Hair switch volume reduction benefit after subsequent washing; settings: switches from Example 1 subsequently washed, images captured; compared to control
Method: as §1, §2
The switches from the above example were subsequently washed and the images were captured. […] The corresponding benefits for glycine was only −10%.

O=CNCC(=O)O [Example 1, N-formyl glycine]
% shape and frizz control benefit against control [1]: 30% | benefit over control (volume reduction) after washing [2]: 32%

NCC(=O)O [Comparative Example A, glycine]
% shape and frizz control benefit against control [1]: −6% | benefit over control (volume reduction) after washing [2]: −10%
